Test: gradient 5% acetonitrile 3 min, to 50% in 2 min, to 85% in 15 min, held 3 min, 100 µL/min
Conditions: column: Zorbax Extend-C18 2.1 x 50 mm; eluents: water / acetonitrile, 0.1% formic acid
Summary of the method: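 Retention time was recorded from adduct peaks, which were picked computationally and each inspected manually. Pure standards ran in mixtures of ~100 molecules on HPLC coupled to a quadrupole time-of-flight mass spectrometer, in positive and negative ionization mode, through a Zorbax Extend-C18 column (2.1 × 50 mm, 1.8 μm) at 100 μL/min. Eluents were water and acetonitrile, each with 0.1% formic acid.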

| RP-LC retention time [s] | Structure (SMILES) |
| --- | --- |
| 618 | CNC(=O)CSc1nnc(N2CCN(C(=O)Cc3ccc([N+](=O)[O-])cc3)CC2)s1 |
| 687 | COc1cc(CNC(=O)C2CC(=O)N(c3ccc4oc(C)nc4c3)C2)cc(OC)c1 (stereo unspecified) |
| 798 | O=C(OCc1ccccc1)c1nc2ccccc2nc1N1CCN(c2ccccn2)CC1 |
| 906 | CCn1c(C(=O)NCc2ccc(N(C)C)cc2)cc2c(-c3cccs3)nn(-c3ccccc3)c21 |
| 1120 | CCCCOc1ccc(-c2nc(C3CC(=O)N(c4ccc(OC)c(OC)c4)C3)no2)cc1 (stereo unspecified) |
| 1100 | Cc1ccccc1-c1noc(Cn2c(=O)n(Cc3ccco3)c(=O)c3ccccc32)n1 |
| 629 | CCC1(O)CCC12CCN(C(=O)CC1CCN(C(C)=O)CC1)CC2 (stereo unspecified) |
| 1280 | CCCCn1cc(S(=O)(=O)N2CCN(c3ccccc3C)CC2)c2cccnc21 |
| 900 | CCn1cc(S(=O)(=O)NCc2ccc(C)cc2)c2cccnc21 |
| 570 | O=C(CCNc1cnc2cnccn12)Nc1ccc2c(c1)OCO2 |
| 707 | O=C1CC(c2nc(-c3ccccn3)no2)CN1c1ccc2c(c1)OCO2 (stereo unspecified) |
| 632 | CCCCN(CC)C(=O)c1cc(NC(=O)CC(C)C)cnc1N1CCNCC1 |
| 708 | C[C@H](NCc1ccc(OCc2cccc(F)c2)cc1)C(N)=O |
| 625 | COCCNc1c(-c2ccc(F)cc2)nc2sc(C(=O)NCc3ccncc3)c(C)n12 |
| 976 | CCc1cccc(C)c1NC(=O)C1CCN(S(=O)(=O)c2c(C)nn(-c3ccccc3)c2C)CC1 |
| 720 | CN(CC1CCOCC1)C(=O)Nc1ccccc1F |
| 965 | CCOC(=O)c1cccc(NC2=NS(=O)(=O)C(c3ccc(OC)cc3)=C2C)c1 |
| 590 | O=C(NCCN1CCOCC1)C1CCN(c2cnc(N3CCSCC3)nc2)CC1 |
| 788 | CCc1cc(=O)n(CC(=O)Nc2ccc(OC)c(F)c2)c(N)n1 |

Continued, compound first:

| Structure (SMILES) | RP-LC retention time [s] |
| --- | --- |
| CC(=O)NCCc1csc(C2CCN(C(=O)C3CCC3)CC2)n1 | 625 |
| COc1ccc(-c2nnc(-c3cccc(S(=O)(=O)N4CCCC4)c3)o2)cc1OC | 885 |
| CCOc1ccc(C(=O)N2CCC(n3c(-c4ccoc4)nc4cccnc43)C2)cc1 (stereo unspecified) | 756 |
| COc1ccc(OCc2noc(CNC(=O)C3(c4ccccc4)CCOCC3)n2)cc1 | 802 |
| CC(=O)N1CCC2(CC1)CC(N(C(=O)NC(C)C)C1CC1)CCO2 (stereo unspecified) | 653 |
| COC(=O)c1c(C)c(C(=O)C(C)N(C(=O)c2ccccc2Cl)C2CCCCC2)c(C)n1C (stereo unspecified) | 1160 |
| O=C(NC1CCCCCCC1)C1CCN(S(=O)(=O)c2ccc(-c3noc(C4CC4)n3)cc2)CC1 | 1120 |
| O=C(c1ccco1)N1CCCn2nc(-c3ccncc3)cc2C1 | 560 |
| O=c1ccc(-c2ccc3c(c2)OCO3)nn1CCc1nc(-c2ccc(F)cc2)no1 | 927 |
| Cc1cc(C)cc(N2CCC(NC(=O)c3ccsc3)C2=O)c1 (stereo unspecified) | 815 |
| O=C(NCCc1n[nH]c(Cc2cccc(F)c2)n1)c1ccc2c(c1)OCO2 | 673 |
| CC(Cc1cc2c(c(C(N)=O)c1)N(CCCO)CC2)NCCOc1ccccc1OCC(F)(F)F (stereo unspecified) | 654 |
| Cc1ccc(CCNC(=O)c2cc3sccc3n2Cc2ccc(Cl)cc2)cc1 | 1270 |
| Cc1ccc(NC(=O)Cn2cnc3c(sc4nc(-c5ccccc5)ccc43)c2=O)cc1Cl | 1120 |
| CCn1c(=O)c2cc(C(=O)NCc3cn[nH]c3C)nn2c2ccccc21 | 781 |
| COCCNC(=O)C1c2cc(OC)c(OC)cc2C(=O)N(C)C1c1ccc(OC)cc1 (stereo unspecified) | 661 |
| COc1ccccc1-n1nnc(C(=O)Nc2nc(C)cs2)c1-c1ccccn1 | 758 |
